In patent publication US9458219B2, “Human insulin analogue and acylated derivative thereof” (Shanghai Hengrui Pharmaceutical Co., Ltd., priority 2011, dated 2016):

How the values were obtained:
[1] = test system: rat models sufferring from diabetes (STZ); assay: In vivo long-acting activity assay of insulin derivatives; design: species or system Sprague-Dawley (SD) rats; details: s.c., Humulin R 0.04, Detemir 0.2, others 0.1 mg/kg
Protocol: The rats were fed in an environment of SPF level. […] 100 mg/kg STZ was intraperitoneally injected to establish rat models sufferring from diabetes. Two days later, fasting blood glucose values were measured. […] At the beginning of the experiment, rats were weigh, and the blood glucose levels were measured (cut off tails and the blood glucose levels were detected by using Roche Glucometer and the corresponding test strips, similarly hereafter). On the basis of blood glucose values, rats were randomly divided into groups, 43 rats per group. The drug to be used was prepared in required concentrations. After subcutaneous injection of drugs, blood glucose levels were measured at multiple time points. IP (Index of Prolongation) was calculated according to blood glucose level.

[2] = test system: rat models sufferring from diabetes (STZ); assay: In vivo long-acting activity assay of PEGylated insulin; design: species or system Sprague-Dawley (SD) rats; details: for Blood glucose value (%): Humulin R 0.04, Detemir 0.2, PEG insulins 0.1 mg/kg; for AOC % / IP (Index of Prolongation): s.c.
Protocol: Sprague-Dawley (SD) rats, male, used in this experiment were purchased from SINO-BRITSH SIPPR/BK LAB. ANIMAL LTD., CO, License number: SCXK (Shanghai) 2008-0016, 18-20 g. The rats were fed in an environment of SPF level. ICR male mice were fed three days in a laboratory environment, at temperature of 20-25° C., and humidity of 40-60%. The mice were fasted for 8 hrs before the experiment. 100 mg/kg STZ was intraperitoneally injected to establish rat models sufferring from diabetes. Two days later, fasting blood glucose values were measured. […] At the beginning of the experiment, rats were weigh, and the blood glucose levels were measured (cut off tails and the blood glucose levels were detected by using Roche Glucometer and the corresponding test strips, similarly hereafter). On the basis of blood glucose values, rats were randomly divided into groups, 43 rats per group. The drug to be used was prepared in required concentrations. After subcutaneous injection of drugs, blood glucose levels were measured at multiple time points. IP (Index of Prolongation) was calculated according to blood glucose level.

[3] = Table 5, Humulin R 0.04, Detemir 0.2, PEG (20 kD) insulins 0.1 mg/kg
[4] = Table 6, Humulin R 0.04, Detemir 0.2, PEG (30/40 kD) insulins 0.1 mg/kg

Substance: Detemir
- Blood glucose level (%) ([1]; 0 h): 100.00%
- Blood glucose level (%) ([1]; 0.5 h): 72.21%
- Blood glucose level (%) ([1]; 1 h): 35.57%
- Blood glucose level (%) ([1]; 2 h): 14.45%
- Blood glucose level (%) ([1]; 4 h): 16.32%
- Blood glucose level (%) ([1]; 6 h): 23.80%
- Blood glucose level (%) ([1]; 8 h): 34.77%
- Blood glucose level (%) ([1]; 10 h): 51.42%
- Blood glucose level (%) ([1]; 12 h): 39.68%
- Blood glucose level (%) ([1]; 14 h): 58.06%
- Blood glucose level (%) ([1]; 16 h): 74.84%
- Blood glucose level (%) ([1]; 18 h): 91.67%
- Blood glucose level (%) ([1]; 20 h): 99.05%
- AOC [1]: 69.2
- IP (Index of Prolongation) [1]: 100
- Blood glucose value (%) ([2]; Table 5, 0 h): 100%
- Blood glucose value (%) ([2]; Table 5, 1 h): 96.63%
- Blood glucose value (%) ([2]; Table 5, 2 h): 57.24%
- Blood glucose value (%) ([2]; Table 5, 4 h): 32.49%
- Blood glucose value (%) ([2]; Table 5, 6 h): 40.98%
- Blood glucose value (%) ([2]; Table 5, 8 h): 86.94%
- Blood glucose value (%) ([2]; Table 5, 10 h): 112.66%
- Blood glucose value (%) ([2]; Table 5, 12 h): 127.52%
- AOC % [2, 3]: 7.39%
- IP (Index of Prolongation) [2, 3]: 100
- AOC % [2, 4]: 5.92%
- IP (Index of Prolongation) [2, 4]: 100
- Blood glucose value (%) ([2]; Table 6, time 0): 100.00%
- Blood glucose value (%) ([2]; Table 6, time 1): 104.15%
- Blood glucose value (%) ([2]; Table 6, time 2): 74.83%
- Blood glucose value (%) ([2]; Table 6, time 3): 46.46%
- Blood glucose value (%) ([2]; Table 6, time 4): 23.36%
- Blood glucose value (%) ([2]; Table 6, time 6): 17.11%
- Blood glucose value (%) ([2]; Table 6, time 8): 32.52%
- Blood glucose value (%) ([2]; Table 6, time 10): 94.89%
- Blood glucose value (%) ([2]; Table 6, time 12): 110.45%
